Measured values from patent US20250032474A1, “COMBINATION OF 8-CHLORO-N-(4-(TRIFLUOROMETHOXY)PHENYL)QUINOLIN-2-AMINE AND ITS DERIVATIVES WITH A S1P RECEPTOR MODULATOR” (ABIVAX, priority 0001, published 2025).

Tests used:
[1] = test system: T cell transfer adoptive model of colitis; experiment: T cell transfer adoptive model of colitis, body weight; format: in vivo, C57BL/6NRj-Rag2^tm1Ciphe/Rj mice; conditions: day 55; oral daily; ABX464 100 mg/kg, etrasimod 3 mg/kg, ozanimod 1.5 mg/kg, alone or combined
Experimental: (§1) 8-week-old male C57BL/6 mice and 6-week-old male C57BL/6NRj-Rag2^tm1Ciphe/Rj mice were purchased from Janvier Labs and housed in accordance with French and European regulations. The colony is maintained at 21±1° C., 50±5% humidity and under an alternating 12/12-hours light/dark cycle (light at 6:00 AM). Standard food and water were given ad libitum. Animals were allowed to acclimate to the animal facility at least 10 days prior to conducting the study.
Spleens were dissected from C57BL/6 male donor mice and placed in a PBS+2% FBS buffer. Single-cell suspension was generated with Gentle Macs Dissociator followed by mashing cells through 40-μm nylon mesh strainers. Cells were pelleted and suspended in ACK lysis buffer for 5 minutes at RT (room temperature) followed by the addition of cold PBS+2% FBS buffer. CD4+ T cells were enriched by negative selection using a CD4+ T-cell isolation kit (Miltenyi) and LS magnetic columns. The flow through was collected, and cells were centrifuged and resuspended in PBS+2% FBS buffer. Antibodies (CD45RB-PE; CD4 FITC) were added and incubated on ice for 30 minutes protected from light. Cells were washed with buffer, centrifuged, resuspended and sorted using BD FACSAria™ Fusion Flow Cytometer. […]
Weight was monitored over the period of the study (55 days), and the effect on body weight over the time period is shown in FIGS. 1A-1B. […]

[2] = test system: cytokines (TNFα, IL-6, IFNg, and IL17) in blood; experiment: T cell transfer adoptive model of colitis, cytokine levels in blood (V-PLEX proinflammatory panel); format: in vivo, C57BL/6NRj-Rag2^tm1Ciphe/Rj mice; conditions: day 55; oral daily; ABX464 100 mg/kg, etrasimod 3 mg/kg, ozanimod 1.5 mg/kg, alone or combined
Experimental: as §1
Spleens were dissected from C57BL/6 male donor mice and placed in a PBS+2% FBS buffer. Single-cell suspension was generated with Gentle Macs Dissociator followed by mashing cells through 40-μm nylon mesh strainers. Cells were pelleted and suspended in ACK lysis buffer for 5 minutes at RT (room temperature) followed by the addition of cold PBS+2% FBS buffer. CD4+ T cells were enriched by negative selection using a CD4+ T-cell isolation kit (Miltenyi) and LS magnetic columns. The flow through was collected, and cells were centrifuged and resuspended in PBS+2% FBS buffer. Antibodies (CD45RB-PE; CD4 FITC) were added and incubated on ice for 30 minutes protected from light. Cells were washed with buffer, centrifuged, resuspended and sorted using BD FACSAria™ Fusion Flow Cytometer. CD4+CD45high and CD4+CD45low cells were sorted, centrifuged and resuspended in sterile PBS. A total of 5×10^5 cells CD4+CD45high or CD4+CD45low were intraperitoneally injected to 6-week-old male C57BL/6NRj-Rag2^tm1Ciphe/Rj mice. The group “high” (injected with CD4+CD45high) represents the […] and the group “low” (injected with CD4+CD45low) represents the […].
Rag2^tm1Ciphe/Rj mice injected with CD4+CD45high or CD4+CD45low (controls) were orally dosed daily (10 ml/kg) beginning on the day of the transfer (1 h before the cell transfer at Day 0) until day 55 with vehicle (0.5% methylcellulose) and Rag2^tm1Ciphe/Rj mice injected with CD4+CD45high were orally dosed daily with one of the following 8-Chloro-N-(4-(trifluoromethoxy)phenyl)quinolin-2-amine (ABX464) (100 mg/kg), Etrasimod (3 mg/kg), Ozanimod (1.5 mg/kg), ABX464+Etrasimod (100 mg/kg and 3 mg/kg) or ABX464+Ozanimod (100 mg/kg and 1.5 mg/kg). All mice were weighed daily.
At day 55, mice were anesthetized with isoflurane. Blood was collected at Tmax and mice were euthanized to harvest tissues. Cytokines concentrations plasma were determined using V-PLEX proinflammatory Panel mouse kit (Meso Scale Diagnostics).
Statistical analysis was performed on mean+/−standard deviation by one way ANOVA followed by Kruskal-Wallis's multiple comparisons test. Asterisk indicates the significance of the differences: *P<0.05, **P<0.01, ***P<0.001, ****P<0.0001.
In addition, a Welch ANOVA was performed on log transformed data for each cytokine, based on the above results.
A synergy was assessed by comparing each combination group effect versus vehicle to the sum of the corresponding compound alone groups' effects versus vehicle (Bonferroni-Holm's adjustment for multiplicity).
The following tables give the estimation and 95% confidence interval (95% CI) of the difference between Combination effect and Sum of compounds alone effects for each cytokine.

[3] = test system: peripheral blood lymphocytes; conditions: oral administration; cited from earlier work
[4] = test system: chronic plaque psoriasis; relapsing-remitting multiple sclerosis; conditions: patients with moderate to severe chronic plaque psoriasis and patients with relapsing-remitting multiple sclerosis; cited from earlier work
[5] = test system: active SPMS; conditions: cited from earlier work

SMILES | body weight [1] | plasma level of IFNg [2] | plasma level of IL17 [2] | plasma level of IL-6 [2] | plasma level of TNFα [2] | number of peripheral blood lymphocytes [3] | clinical benefit in phase II/phase III trials [4] | risk of disability and MS relapses [5]
O=C(O)C[C@H]1CCc2c1[nH]c1ccc(OCc3ccc(C4CCCC4)c(C(F)(F)F)c3)cc21 [Etrasimod] | protection from weight loss | reduced | did not reduce | did not reduce | reduced |  |  | 
CC(C)Oc1ccc(-c2nc(-c3cccc4c3CC[C@@H]4NCCO)no2)cc1C#N [Ozanimod] |  | reduced | did not reduce | did not reduce | reduced |  |  | 
FC(F)(F)Oc1ccc(Nc2ccc3cccc(Cl)c3n2)cc1 [ABX464, 8-Chloro-N-(4-(trifluoromethoxy)phenyl)quinolin-2-amine] | weight gain | did not reduce | reduced | did not reduce | reduced |  |  | 
CCC/N=C1\S/C(=C\c2ccc(OC[C@H](O)CO)c(Cl)c2)C(=O)N1c1ccccc1C [Ponesimod, (R)-5-[3-chloro-4-(2,3-dihydroxy-propoxy)-benz[Z]ylidene]-2-([Z]-propylimino)-3-o-tolyl-thiazolidin-4-one] |  |  |  |  |  | consistent, sustained, and dose-dependent reduction | clinical benefit | 
CCc1cc(/C(C)=N/OCc2ccc(C3CCCCC3)c(C(F)(F)F)c2)ccc1CN1CC(C(=O)O)C1 [Siponimod, 1-(4-[1-[(E)-4-Cyclohexyl-3-trifluoromethyl-benzyloxyimino]-ethyl]-2-ethyl-benzyl)-azetidine-3-carboxylic acid] |  |  |  |  |  |  |  | decreases
